The results in this text go back to a melting point compilation (Tetko et al.; mined from patent text by program, amines drawn as free bases though some values may be those of a salt).

SMILES strings stand for the structures.

In general, melting point refers to the temperature of the solid-liquid transition. With `C1=Cc2ccccc2NC1`, the melting point lay in the range of 89 to 90 °C.

As to `N#CC1=C(c2ccccc2)Nc2n[nH]cc2C1c1ccccc1[N+](=O)[O-]` (configuration not stated), the melting point came out at 221 °C.

In turn, `O=C(c1cccs1)c1cnn2c(-c3cccc(NC(=O)C4CCCCC4)c3)ccnc12` yielded a melting point of 239 to 240 °C.

`C[C@H](NC(=O)COCCN1C(=O)c2ccccc2C1=O)C(=O)N[C@H](CCC(=O)OCc1ccccc1)C(N)=O`: the melting point was 205 to 206 °C.

In turn, `O=C1Cc2cc(O)cc(O)c2C2CCCCC12` (configuration not stated) gave a melting point of 220 to 223 °C.

Take `CCOC(=O)C1=C(C)NC(c2cscn2)=NC1c1ccc(F)cc1Cl` (configuration not stated): the melting point fell in the range of 140 to 142 °C.

`CCCC(C)(C)C(=O)Oc1ccc(C(=O)CNC(C)(C)C)cc1O` yielded a melting point of 128 to 130 °C.

Molecule `COc1ccc(-c2ccc(=O)[nH]n2)c(OCC(O)CNC(C)(C)C)c1` (configuration not stated) had a melting point of 159 to 161 °C.

Molecule `N#Cc1cc(Br)cc(C(F)(F)F)n1` had a melting point of 88.5 °C.

As for `COc1cc(-n2nc(C(F)(F)F)cc2-c2ccc(-c3ccco3)cc2)ccc1S(N)(=O)=O`, the melting point stood at 207 °C.

On to `COCc1ccc([C@H]2CC[C@H]([C@H]3CC[C@H](C=O)CC3)CC2)cc1F`, for which the melting point lay in the range of 52 to 54 °C.

In turn, `COC(=O)Cc1cn(-c2ccccc2)nc1OCc1ccc(OCc2nc(-c3ccccc3)oc2C)c(OC)c1` displayed a melting point of 107 to 108 °C.

For `O=C1c2ccccc2C(=O)c2c1oc1cc(O)ccc21`, the melting point is more than 310 °C.

Regarding `Cc1c(NC(=O)c2ccc(CC(=O)c3ccccc3)cc2)ccc2cc(CN3CCCC3)cnc12`, the melting point was found to be 187 °C.

`CCCc1c(OCC(O)COc2cccc([N+](=O)[O-])c2C#N)ccc(C(C)=O)c1O` (configuration not stated) showed a melting point of 117 to 119 °C.

`COc1ccc2c(CCC(=O)O)nnc(-c3nccs3)c2c1` registered a melting point of 228 to 229 °C.

For the molecule `CCC(=O)N1CCC(NC(=O)Nc2ccc(OC(F)(F)F)cc2)CC1`, the melting point lay within 195 to 196 °C.

Regarding `O=C(O)CC1CCCc2c(n(Cc3ccc(-n4ccnc4)cc3)c3ccc(F)cc23)C1` (configuration not stated), the melting point was 237 °C.

Take `COC(=O)CC[C@@H](NC(=O)[C@H](CO)NC(=O)OC(C)(C)C)C(=O)OC`: the melting point fell in the range of 90 to 92 °C.

The molecule `Cc1ccc(S(=O)(=O)ON=C(c2cccc([N+](=O)[O-])c2)n2nc(C)cc2N)cc1` gave a melting point of 156 to 158 °C.

`O=C(NCC1COCCO1)C1CCCN(c2cccc3c2C(=O)N(Cc2ccncc2)C3=O)C1` (configuration not stated) had a melting point of 186 to 187 °C.

`CC(=O)N(C1=C(NC(C)C)C(=O)c2c(cnn2C)C1=O)C(C)C` came in with a melting point of 123 to 126 °C.

`O=C1CCN(Cc2cccnc2)C(=O)C1=C1SC=CS1`: the melting point fell in the range of 132 to 133 °C.

As to `NC(=S)c1ccc(O)cc1O`, the melting point fell in the range of 164 to 166 °C.

`COc1ccc(-c2nnc3c4ccccc4c(Cl)nn23)cc1`: the melting point is 192 to 193 °C.

As for `CNS(=O)(=O)c1cccc(-c2ccc3cccc(N4CCN(C)CC4)c3c2)c1`, the melting point was determined as 148 °C.

In turn, `C#CCOC(=O)c1ncn2c1CN(C)C(=O)c1cc(F)ccc1-2` gave a melting point of 220 to 222 °C.

`Cc1nc2ccc(S(=O)(=O)c3cccc4cnccc34)cc2nc1C`: the melting point fell in the range of 198 to 200 °C.

Molecule `Cc1c(-c2ccc(C(=O)c3ccc(-c4sc5ccccc5c4C)nc3)cn2)sc2ccccc12` returned a melting point of 120 to 121 °C.

As for `CCn1cc(C(=O)O)c(=O)c2ccc(N3CCNCC3)cc21`, the melting point was in the range of 272 to 275 °C.

The molecule `CCCNC(=O)C(C)(C)Cc1ccc2c(c1)c(Cc1ccc(C(=O)O)cc1OC)cn2CCC` had a melting point of 78 to 90 °C.

In turn, `CCCCCc1c(-c2ccc3c(Br)c(O)ccc3c2)oc2ccccc12` gave a melting point of 75 to 77 °C.

Turning to `NC(=O)COC(=O)c1c(Cl)ccc(Cl)c1Cl`, the melting point lay in the range of 158 to 160 °C.

In turn, `CC(=O)C=Cc1ccc(Cl)cc1Cl` registered a melting point of 79 to 80 °C.

Molecule `O=C(C=Cc1ccccc1F)C=Cc1ccccc1F` showed a melting point of 68 to 72 °C.

`O=C1Nc2ccc(NC(=O)c3cccn(-c4ccc(F)cc4)c3=O)cc2/C1=C/c1ccc[nH]1` registered a melting point of more than 300 °C.

The molecule `NS(=O)(=O)c1ccc(C2=C(c3ccc(-c4cscn4)cc3)C(=O)OC2)cc1F` displayed a melting point of 194 °C.

In turn, `COc1ccc(-c2nc3sccn3c2/C=C/C(=O)c2ccc3c(c2)OCO3)cc1` registered a melting point of 189 to 191 °C.

`FC(F)(F)C(=Cc1ccccc1)c1ccc(Cl)cc1` registered a melting point of 63 to 66 °C.

`O=C(N(CCN(C(=O)C(F)(F)F)c1cccc2[nH]cc(Cl)c12)Cc1ccccc1)C(F)(F)F` gave a melting point of 139 to 142 °C.

`COC(=O)CCSC(SCCC(=O)OC)c1cccc(C=Cc2nc3cc(Cl)ccc3o2)c1` gave a melting point of 66 to 67 °C.

For the molecule `CCC(C)(CC)C(=O)O[C@H]1CCC=C2C=C[C@H](C)[C@H](CC[C@@H]3C[C@@H](O)CC(=O)O3)[C@H]21`, the melting point was 61 to 64 °C.

`COC(=O)c1ccc(CBr)c(N(C)C(=O)OC)c1` gave a melting point of 99 to 102 °C.

`COCc1ccc(S(=O)(=O)N2CCCC2c2ccc(F)cc2)cc1` (racemic) came in with a melting point of 115 °C.

`CC(C)(C)C12OOC1(c1cc3cc(O[Si](C)(C)C(C)(C)C)ccc3o1)OCC2(C)C` (configuration not stated): the melting point lay in the range of 117 to 118 °C.

`COc1ccc2nc(SCc3nccc(N4CCOCC4)c3Cl)[nH]c2n1` registered a melting point of 210 °C.

As to `CC(c1ccccc1)N(C=O)CC#N` (single isomer, unassigned; (+)), the melting point was 78.9 °C.

In turn, `COc1ccccc1C(=O)OCC(=O)c1ccccc1` came in with a melting point of 78 to 79 °C.

As for `CNC(=O)C(NC(=O)c1ccc(F)cc1C(F)(F)F)C(O)CO` (configuration not stated), the melting point worked out at 163 °C.

`CC(S)Cn1c(=O)[nH]c2ccccc2c1=O` (configuration not stated) displayed a melting point of 206 to 208 °C.

In the case of `ClCc1csc(N2CCOCC2)n1`, the melting point was in the range of 87 to 88 °C.

`CC(=O)OC1CSC(Oc2cc(-c3cccnc3)ccc2Cl)C(OC(C)=O)C1OC(C)=O` (configuration not stated) yielded a melting point of 155 °C.

The molecule `CCCn1nc2c(N)nc3c(c2c1CC(C)(C)S(C)(=O)=O)CCCC3` showed a melting point of 209 to 211 °C.

In turn, `CNS(=O)(=O)c1ccc(C2CCN(c3ccncc3)CC2)cc1` yielded a melting point of 225 to 228 °C.

With `O=c1[nH][nH]c(=O)n1CCCCl`, the melting point is 168 to 170 °C.

Molecule `N#Cc1n[nH]c2nc(N3CCCNCC3)ccc12` registered a melting point of 196 to 197 °C.

In turn, `COc1ccc2c(C3=CCNCC3)c[nH]c2c1` returned a melting point of 193 to 194 °C.

In turn, `CN(C)C1(c2ccccc2)CCC(c2cc3ccccc3n2S(=O)(=O)c2ccccc2)CC1` (configuration not stated) displayed a melting point of 139 to 142 °C.

As for `COc1c(Cl)c(F)cc2c(=O)c(C(=O)O)cn(C3CC3)c12`, the melting point was 195 to 199 °C.

In the case of `NC(=O)CNC(=O)c1ccc(-c2cccc3cc(Cc4cccc(C(F)(F)F)c4)sc23)cc1`, the melting point fell in the range of 134 to 136 °C.

Take `CS(=O)C1CC(=O)N1CC(=O)NCc1ccccc1` (single isomer, unassigned; (-)): the melting point lay in the range of 138 to 140 °C.

Molecule `CCN(c1cccc2cc(-c3ncc(COc4ccc(C(=O)O)cc4)s3)[nH]c12)S(=O)(=O)c1cccs1` returned a melting point of 188 °C.

The molecule `O=C(c1ccncc1)N1CCN(Cc2ccc3c(c2)-c2[nH]nc(-c4ccsc4)c2C3)CC1` showed a melting point of 168 to 170 °C.

In the case of `O=C(OCCN1CCCC1)c1c[nH]c2ccccc12`, the melting point fell in the range of 145 to 146 °C.

In the case of `CN(C)CCCCNC(=O)c1cnc2c(c1)N(Cc1cc(Cl)ccc1C(F)(F)F)CCN2`, the melting point was 182 °C.

`CC1(C)NC(=O)N(c2cc(C#N)c(C#N)c(C(F)(F)F)c2)C1=O` displayed a melting point of 159 to 160 °C.

Turning to `O=C1NC(=O)C2(C(=O)N(Cc3ccc(Cl)c(Cl)c3)c3ccccc32)N1C(=O)OCc1ccccc1` (configuration not stated), the melting point lay within 215 to 217 °C.

Molecule `CC1=C(Cc2ncc[nH]2)CCc2ccccc21` registered a melting point of 209 to 211 °C.

Molecule `CS(=O)(=O)N(Cc1cccnc1)c1ccccc1OCC(F)(F)F` had a melting point of 80 to 84 °C.

Molecule `Nc1nc2ccccc2c2c1nc(CCO)n2CC1(O)CCC1` came in with a melting point of 132 to 137 °C.

`Cc1ccc(-c2cncnc2O)cc1` returned a melting point of 189 to 192 °C.

For `CCCCCCCCCCCCCc1c(C(F)(F)F)noc1NS(=O)(=O)c1ccccc1`, the melting point amounted to 89 °C.

Molecule `CS(=O)(=O)c1ccc(-c2[nH]nc(OC3CCCCC3=O)c2-c2ccc(F)cc2)cc1` (configuration not stated) came in with a melting point of 113 to 116 °C.

In the case of `COCc1nc2c(N)nc3cc(CCCNS(C)(=O)=O)ccc3c2n1CC(C)(C)O`, the melting point lay within 205 to 207 °C.

The molecule `O=C1O[C@@H]2C[C@@]1(O)C[C@H]1OC(c3ccccc3)O[C@@H]21` (some centres not stated) yielded a melting point of 96 to 97 °C.

Take `CC(=O)Nc1ccccc1OCCO`: the melting point lay within 89 to 91 °C.

With `O=C(O)Cc1ccc2c(c1)CC(CCNS(=O)(=O)c1ccc(Cl)cc1)C2` (configuration not stated), the melting point lay within 146 to 147 °C.

Turning to `COc1ccc(OCCc2ccccc2)c(CC(=O)O)c1`, the melting point lay within 56.5 to 57.5 °C.

In turn, `CC(=O)[NH+]([O-])C[C@@H]1CN(c2ccc(N3CCN(S(=O)(=O)CC#N)CC3)c(F)c2)C(=O)O1` (some centres not stated) showed a melting point of 153 to 156 °C.

`N#Cc1cnc2sc(-c3ccccc3)cc2c1Nc1ccc2[nH]ccc2c1` came in with a melting point of more than 245 °C.

Turning to `c1ccc(-c2ccc(-c3nc(COc4ccc(CCCn5ccnc5)cc4)co3)s2)cc1`, the melting point fell in the range of 128 to 129 °C.

In the case of `Cc1nc(N2CCN(CCC3CC3)C2=O)sc1C(=O)NCc1ccccc1`, the melting point was in the range of 137 to 138 °C.

Molecule `C=CCNc1nc(NCCCCC)c2scc(C)c2n1` had a melting point of 64 to 65 °C.

In the case of `CNN1c2c(cc(Oc3ccc(F)cc3F)c(=O)n2NC)C=NC1NC1CCOCC1` (configuration not stated), the melting point is 80.5 to 89.9 °C.

Take `O=C(NCCO)c1cccc(-c2cccc3c2CC(Cc2cccc(C(F)(F)F)c2)O3)c1` (configuration not stated): the melting point lay in the range of 120 to 121 °C.

The molecule `O=C(CN1CC=CCC1)NC(=O)N1CCN2C(=O)OC(c3ccccc3)(c3ccccc3)C2C1` (configuration not stated) yielded a melting point of 156 to 157 °C.

`Cc1cc(F)ccc1-c1nc(OCC(CO)CO)nc2c1ccc(=O)n2-c1c(F)cccc1F` gave a melting point of 77 to 81 °C.
